Source: ChEMBL document CHEMBL1133350, “Novel DMARDs on the basis of a new concept of dual cytokine regulation, TNF-alpha suppression and IL-10 augmentation” (Bioorg Med Chem Lett, 2000)

Experiments:
[1] = Partition coefficient (logP); conditions: octanol/water
Mus musculus [2] = test: Inhibit tumor necrosis factor alpha production in LPS-stimulated mice after peroral administration of 10 mg/kg; type: functional; conditions: route oral
Mus musculus [3] = test: The compound (10 mg/kg) administered perorally was tested for its ability to augment IL-10 in LPS-stimulated mice; type: functional
Rattus norvegicus [4] = test: The compound (10 mg/kg) was tested for its therapeutic effect in an adjuvant-induced arthritis rat; type: functional
Rattus norvegicus [5] = test: The compound (30 mg/kg) was tested for its therapeutic effect in an adjuvant-induced arthritis rat; type: functional
[6] = Bioavailability of the compound in rats after administration of 30 mg/kg; type: ADME, organism-based; conditions: rat, in vivo, read-out: Bioavailabiility

SMILES | logP [1] | inhibition in vivo at 10 mg/kg (Mus musculus [2]) [%] | IL-10 level (% of control) (Mus musculus [3]) [%] | Therapeutic effect (Rattus norvegicus [4]) [%] | Therapeutic effect (Rattus norvegicus [5]) [%] | bioavailability [6] [%]
CC(=O)NCc1ccc(CN2CCN(c3cnccn3)CC2)cc1 | -0.09 | 76 | 334 | – | – | –
CC(=O)NC1(c2ccc(CN3CCN(c4nccs4)CC3)cc2)CC1 | 1.58 | 84 | 646 | 133 | – | –
CC(=O)NCc1ccc(CN2CCN(c3ccccc3)CC2)cc1 | 1.55 | 89 | 376 | – | 35 | –
CCC(NC(C)=O)c1ccc(CN2CCN(c3ccccc3)CC2)cc1 (stereo unspecified) | 2.59 | 82 | 222 | – | – | –
CC(=O)NC(C)(C)c1ccc(CN2CCN(c3nccs3)CC2)cc1 | 2.01 | 85 | 712 | 131 | – | –
CC(=O)NC(C)(C)c1ccc(CN2CCN(c3cccc(F)n3)CC2)cc1 | 2.24 | 88 | 579 | 142 | – | –
CC(=O)NC1(c2ccc(CN3CCN(c4ccccc4)CC3)cc2)CC1 | 1.9 | 90 | 712 | – | – | –
CC(=O)NC1(c2ccc(CN3CCN(c4ncccn4)CC3)cc2)CC1 | 0.75 | 88 | 419 | 163 | – | 76
CC(=O)NCc1ccc(CN2CCN(c3ccccn3)CC2)cc1 | 0.88 | 88 | 642 | 62 | – | –
CC(=O)NC(C)(C)c1ccc(CN2CCN(c3ccccc3)CC2)cc1 | 2.83 | 88 | 561 | – | 80 | –
CC(=O)NC(C)c1ccc(CN2CCN(c3ccccc3)CC2)cc1 (stereo unspecified) | 2.08 | 87 | 270 | – | – | –
CCC(CC)(NC(C)=O)c1ccc(CN2CCN(c3ccccc3)CC2)cc1 | 3.35 | 81 | 321 | – | – | –
CC(=O)NC(C)c1ccc(CN2CCN(c3cccc(F)n3)CC2)cc1 (stereo unspecified) | 1.99 | 82 | 404 | 173 | – | –
CC(=O)NC(C)(C)c1ccc(CN2CCN(c3ncccn3)CC2)cc1 | 1.18 | 77 | 200 | – | – | –
CC(=O)NC1(c2ccc(CN3CCN(c4cccc(F)n4)CC3)cc2)CC1 | 1.8 | 84 | 454 | 55 | – | –
CC(=O)NCc1ccc(CN2CCN(c3ccncc3)CC2)cc1 | 0.51 | 40 | 198 | – | – | –
CC(=O)NCc1ccc(CN2CCN(c3ncccn3)CC2)cc1 | 0.4 | 82 | 713 | 46 | – | –
CC(=O)NC(C)c1ccc(CN2CCN(c3nccs3)CC2)cc1 (stereo unspecified) | 1.76 | 84 | 621 | 101 | – | –
CC(=O)NCc1ccc(CN2CCN(c3nccs3)CC2)cc1 | 1.23 | 85 | 1150 | 80 | – | –
CC(=O)NCc1ccc(CN2CCN(c3nccn3C)CC2)cc1 | 0.67 | 62 | 747 | – | – | –
CC(=O)NCc1ccc(CN2CCN(c3cccc(F)n3)CC2)cc1 | 1.45 | 85 | 973 | 144 | – | –
CC(=O)NCc1ccc(CN2CCN(c3cccnc3)CC2)cc1 | 0.49 | 61 | 236 | – | – | –
CC(=O)NC(C)c1ccc(CN2CCN(c3ncccn3)CC2)cc1 (stereo unspecified) | 0.93 | 78 | 298 | – | – | –
CC(=O)NCc1ccc(CN2CCN(c3ccc(F)cc3F)CC2)cc1 | – | 91 | 2293 | – | 173 | –
